From patent US20260193268A1, “TRICYCLIC PI3Ka INHIBITOR, PREPARATION METHOD THEREFOR, AND PHARMACEUTICAL USE THEREOF” (WIGEN BIOMEDICINE TECHNOLOGY (SHANGHAI) CO., LTD., priority 2022, published 2026)
Like-named read-outs stand apart in the source and are kept apart here.

Tests used:
[1] = biological target: PI3Kα (Homo sapiens, UniProt P42336); assay: ADP-Glo kinase assay, in vitro inhibition of PI3Kα kinase activity; assay type: biochemical; settings: 25 μM ATP, PIP2 50 μg/mL, room temperature 1 h, read-out: Inhibitory activity against PI3K kinases, PI3Kα (IC50)
Experimental: (§1) Biological Example 1. Assay for In Vitro Inhibition of PI3Kα, PI3Kβ, PI3Kγ, and PI3Kδ Kinase Activity by Compounds of the Present Disclosure
(§2) The experiment was performed using the ADP-Glo Kinase Assay kit according to the instructions. The following buffer solution was prepared: 50 mM HEPES, pH 7.5, 3 mM MgCl2, 1 mM EGTA, 100 mM NaCl, 0.03% CHAPS, 2 mM DTT. Test compound samples were dissolved in DMSO, diluted 3-fold at a starting concentration, e.g., 10 μM, and added to the screening system. A DMSO control and a kinase-free control were set simultaneously. The optimal concentrations of PI3Kα, PI3Kδ, PI3Kβ, and PI3Kγ enzymes, substrate (PIP2), and ATP were prepared with buffer. The enzyme reaction system contained: buffer, 25 μM ATP, kinase substrate (PIP2, 50 μg/mL), and kinases PI3Kα (0.15 μg/mL), PI3Kδ (1.2 μg/mL), PI3Kβ (0.3 μg/mL), PI3Kγ (2.5 μg/mL), and the like. The reaction system was reacted at room temperature for 1 h. The reaction was terminated by adding a termination reagent (ADP-Glo reagent, 5 μL), and the ADP content in the system was detected using a detection reagent (Kinase Detection Reagent, 10 μL). Signal data were collected using an Envision instrument. The inhibition rate was calculated according to the following equation: % inhibition=(DMSO control signal value−sample signal value)/(DMSO control signal value−kinase-free control signal value). The IC50 values were obtained by fitting a curve using the equation: Y=Bottom+(Top−Bottom)/(1+(IC50/X)^HillSlope).

[2] = biological target: PI3Kβ (Homo sapiens, UniProt P42338); assay: ADP-Glo kinase assay, in vitro inhibition of PI3Kβ kinase activity; assay type: biochemical; settings: 25 μM ATP, PIP2 50 μg/mL, room temperature 1 h, read-out: Inhibitory activity against PI3K kinases, PI3Kβ (IC50)
Experimental: as §1, §2

[3] = biological target: PI3Kγ (Homo sapiens, UniProt P48736); assay: ADP-Glo kinase assay, in vitro inhibition of PI3Kγ kinase activity; assay type: biochemical; settings: 25 μM ATP, PIP2 50 μg/mL, room temperature 1 h, read-out: Inhibitory activity against PI3K kinases, PI3Kγ (IC50)
Experimental: as §1, §2

[4] = biological target: PI3Kδ (Homo sapiens, UniProt O00329); assay: ADP-Glo kinase assay, in vitro inhibition of PI3Kδ kinase activity; assay type: biochemical; settings: 25 μM ATP, PIP2 50 μg/mL, room temperature 1 h, read-out: Inhibitory activity against PI3K kinases, PI3Kδ (IC50)
Experimental: as §1, §2

[5] = tested on: HCC1954 cells (with PI3Kα H1047R mutation); assay: In vitro inhibition of HCC1954 cell proliferation (CellTiter-Lumi); assay type: cell-based; settings: HCC1954 cells, 144 h, CellTiter-Lumi
Experimental: Assay for In Vitro Inhibition of HCC1954 Cell Proliferation by Compounds of the Present Disclosure
The growth of the cells was evaluated, and the IC50 for the inhibition of cell growth by the compounds was calculated.

[6] = tested on: MCF-7 cells (with PI3Kα E545K mutation); assay: In vitro inhibition of MCF-7 cell proliferation (CellTiter-Lumi); assay type: cell-based; settings: Homo sapiens, MCF7, 144 h
Outline: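 MCF-7 (PI3Kα E545K) seeded at 2000 cells/well; serially diluted compounds added next day and exposed for 144 h. Cellular ATP read by CellTiter-Lumi luminescence; IC50 for growth inhibition calculated.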

[7] = Homo sapiens, HCC1954, 144 h, numeric values, read-out: Inhibitory activity against HCC1954 cells (IC50)
[8] = numeric values, read-out: Inhibitory activity against MCF-7 cells (IC50)
[9] = Homo sapiens, HCC1954, 144 h, class symbols, read-out: Inhibitory activity against HCC1954 cells (IC50), class symbols
[10] = class symbols, read-out: Inhibitory activity against MCF-7 cells (IC50), class symbols

Sequence of PI3Kβ (P42338 whole entry, species assumed): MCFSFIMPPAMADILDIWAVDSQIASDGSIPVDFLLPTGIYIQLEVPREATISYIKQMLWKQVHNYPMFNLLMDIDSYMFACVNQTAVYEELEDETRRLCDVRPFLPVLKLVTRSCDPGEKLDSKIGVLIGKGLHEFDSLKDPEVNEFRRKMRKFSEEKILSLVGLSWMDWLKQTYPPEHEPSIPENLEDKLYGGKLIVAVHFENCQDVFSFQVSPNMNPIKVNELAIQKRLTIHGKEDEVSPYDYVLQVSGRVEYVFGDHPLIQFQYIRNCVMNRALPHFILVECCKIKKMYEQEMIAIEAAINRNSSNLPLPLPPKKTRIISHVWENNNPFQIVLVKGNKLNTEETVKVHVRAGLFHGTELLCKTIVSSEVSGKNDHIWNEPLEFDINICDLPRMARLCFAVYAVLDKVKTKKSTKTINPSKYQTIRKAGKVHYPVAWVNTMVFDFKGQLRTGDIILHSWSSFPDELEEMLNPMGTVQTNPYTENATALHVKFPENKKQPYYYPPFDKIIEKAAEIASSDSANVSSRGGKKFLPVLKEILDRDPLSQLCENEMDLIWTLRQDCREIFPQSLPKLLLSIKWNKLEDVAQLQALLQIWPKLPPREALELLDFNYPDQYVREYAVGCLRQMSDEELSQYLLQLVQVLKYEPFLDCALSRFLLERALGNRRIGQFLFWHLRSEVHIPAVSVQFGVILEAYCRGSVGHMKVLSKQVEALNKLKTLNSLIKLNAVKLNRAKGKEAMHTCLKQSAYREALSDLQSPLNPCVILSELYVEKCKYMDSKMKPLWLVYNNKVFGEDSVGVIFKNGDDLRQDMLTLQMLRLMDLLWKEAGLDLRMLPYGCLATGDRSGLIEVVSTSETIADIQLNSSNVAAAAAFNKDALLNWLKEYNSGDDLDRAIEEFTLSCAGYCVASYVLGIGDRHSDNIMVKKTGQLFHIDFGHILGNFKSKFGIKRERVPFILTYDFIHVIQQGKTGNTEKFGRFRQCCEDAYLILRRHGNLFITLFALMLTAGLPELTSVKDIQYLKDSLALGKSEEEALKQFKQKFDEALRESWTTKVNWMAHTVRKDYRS
Sequence of PI3Kβ (P27986 whole entry partner, species assumed): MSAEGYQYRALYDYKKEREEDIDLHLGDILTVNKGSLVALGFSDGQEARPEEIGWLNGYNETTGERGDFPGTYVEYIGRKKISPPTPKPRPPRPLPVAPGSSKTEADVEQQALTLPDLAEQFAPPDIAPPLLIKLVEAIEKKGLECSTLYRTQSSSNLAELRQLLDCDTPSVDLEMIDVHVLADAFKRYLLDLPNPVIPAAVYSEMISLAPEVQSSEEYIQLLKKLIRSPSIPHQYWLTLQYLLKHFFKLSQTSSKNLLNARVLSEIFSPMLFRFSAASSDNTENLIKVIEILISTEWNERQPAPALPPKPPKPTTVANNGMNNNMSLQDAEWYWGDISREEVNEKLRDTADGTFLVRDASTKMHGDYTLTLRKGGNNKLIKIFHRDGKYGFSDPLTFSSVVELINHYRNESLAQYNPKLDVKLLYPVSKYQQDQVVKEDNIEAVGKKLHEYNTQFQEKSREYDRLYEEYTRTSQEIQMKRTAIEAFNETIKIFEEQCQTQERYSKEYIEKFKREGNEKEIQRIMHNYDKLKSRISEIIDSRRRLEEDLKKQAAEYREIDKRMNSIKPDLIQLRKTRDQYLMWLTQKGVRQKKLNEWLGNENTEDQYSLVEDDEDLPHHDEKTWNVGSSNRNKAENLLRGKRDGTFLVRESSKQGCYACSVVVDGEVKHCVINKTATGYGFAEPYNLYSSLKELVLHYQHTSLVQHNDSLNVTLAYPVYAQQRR
Sequence of PI3Kγ (P48736 whole entry, species assumed): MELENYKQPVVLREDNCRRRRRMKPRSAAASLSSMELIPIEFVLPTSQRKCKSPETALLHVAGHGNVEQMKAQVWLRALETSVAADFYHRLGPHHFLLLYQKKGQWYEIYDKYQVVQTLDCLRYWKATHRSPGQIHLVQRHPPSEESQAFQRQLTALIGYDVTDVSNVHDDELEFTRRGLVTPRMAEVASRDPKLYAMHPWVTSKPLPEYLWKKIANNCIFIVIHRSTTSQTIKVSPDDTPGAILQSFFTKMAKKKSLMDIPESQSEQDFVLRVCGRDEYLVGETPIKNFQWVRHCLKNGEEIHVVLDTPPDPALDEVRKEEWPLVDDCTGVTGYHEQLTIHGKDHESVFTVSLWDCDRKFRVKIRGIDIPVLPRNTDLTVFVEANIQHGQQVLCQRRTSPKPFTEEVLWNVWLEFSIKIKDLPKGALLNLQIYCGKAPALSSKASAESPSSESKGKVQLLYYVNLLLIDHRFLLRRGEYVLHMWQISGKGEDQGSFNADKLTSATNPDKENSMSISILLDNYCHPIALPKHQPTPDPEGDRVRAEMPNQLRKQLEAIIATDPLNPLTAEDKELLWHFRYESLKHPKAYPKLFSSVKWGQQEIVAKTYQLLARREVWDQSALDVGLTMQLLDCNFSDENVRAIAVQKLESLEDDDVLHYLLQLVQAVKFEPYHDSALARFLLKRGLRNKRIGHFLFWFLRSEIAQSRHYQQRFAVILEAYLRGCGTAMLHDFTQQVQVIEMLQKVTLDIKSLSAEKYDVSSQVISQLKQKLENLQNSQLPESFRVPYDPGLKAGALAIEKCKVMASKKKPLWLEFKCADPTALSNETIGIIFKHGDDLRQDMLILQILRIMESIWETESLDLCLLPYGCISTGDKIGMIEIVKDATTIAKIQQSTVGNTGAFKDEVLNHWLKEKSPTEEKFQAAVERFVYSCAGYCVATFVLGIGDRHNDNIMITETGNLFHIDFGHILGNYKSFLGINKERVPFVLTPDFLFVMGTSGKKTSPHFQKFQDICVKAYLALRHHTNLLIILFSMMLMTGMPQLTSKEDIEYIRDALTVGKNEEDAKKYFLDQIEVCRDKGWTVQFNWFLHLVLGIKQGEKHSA
Sequence of PI3Kα (P42336 whole entry): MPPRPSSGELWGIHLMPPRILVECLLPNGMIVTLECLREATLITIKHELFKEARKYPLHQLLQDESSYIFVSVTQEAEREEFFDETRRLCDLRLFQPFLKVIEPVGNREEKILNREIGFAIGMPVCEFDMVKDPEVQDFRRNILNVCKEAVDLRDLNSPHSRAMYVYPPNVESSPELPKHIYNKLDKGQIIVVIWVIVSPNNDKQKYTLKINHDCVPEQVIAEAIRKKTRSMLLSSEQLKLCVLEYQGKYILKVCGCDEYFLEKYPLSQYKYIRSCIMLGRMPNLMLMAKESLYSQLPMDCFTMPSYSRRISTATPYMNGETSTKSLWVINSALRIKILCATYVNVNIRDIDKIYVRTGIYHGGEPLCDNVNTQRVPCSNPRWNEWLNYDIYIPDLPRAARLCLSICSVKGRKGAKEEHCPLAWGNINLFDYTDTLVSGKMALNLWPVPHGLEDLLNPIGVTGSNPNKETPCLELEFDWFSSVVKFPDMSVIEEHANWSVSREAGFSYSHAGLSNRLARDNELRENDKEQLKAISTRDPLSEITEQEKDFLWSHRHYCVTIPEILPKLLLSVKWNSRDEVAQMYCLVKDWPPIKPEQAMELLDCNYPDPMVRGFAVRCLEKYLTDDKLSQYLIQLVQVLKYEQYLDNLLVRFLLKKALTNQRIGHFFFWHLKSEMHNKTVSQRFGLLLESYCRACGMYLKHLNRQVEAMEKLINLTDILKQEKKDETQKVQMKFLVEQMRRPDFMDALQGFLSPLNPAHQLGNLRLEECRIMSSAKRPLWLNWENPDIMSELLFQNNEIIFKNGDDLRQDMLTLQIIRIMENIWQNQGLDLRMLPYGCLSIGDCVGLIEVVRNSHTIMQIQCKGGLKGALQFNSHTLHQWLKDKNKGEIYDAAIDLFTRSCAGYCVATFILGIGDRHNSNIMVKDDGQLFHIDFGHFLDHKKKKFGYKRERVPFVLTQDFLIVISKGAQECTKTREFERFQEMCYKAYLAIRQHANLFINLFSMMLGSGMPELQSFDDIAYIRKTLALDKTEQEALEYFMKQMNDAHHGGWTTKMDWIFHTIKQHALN
Sequence of PI3Kα (P27986 whole entry partner): as the sequence (P27986 whole entry partner, species assumed) above
Sequence of PI3Kδ (O00329 whole entry, species assumed): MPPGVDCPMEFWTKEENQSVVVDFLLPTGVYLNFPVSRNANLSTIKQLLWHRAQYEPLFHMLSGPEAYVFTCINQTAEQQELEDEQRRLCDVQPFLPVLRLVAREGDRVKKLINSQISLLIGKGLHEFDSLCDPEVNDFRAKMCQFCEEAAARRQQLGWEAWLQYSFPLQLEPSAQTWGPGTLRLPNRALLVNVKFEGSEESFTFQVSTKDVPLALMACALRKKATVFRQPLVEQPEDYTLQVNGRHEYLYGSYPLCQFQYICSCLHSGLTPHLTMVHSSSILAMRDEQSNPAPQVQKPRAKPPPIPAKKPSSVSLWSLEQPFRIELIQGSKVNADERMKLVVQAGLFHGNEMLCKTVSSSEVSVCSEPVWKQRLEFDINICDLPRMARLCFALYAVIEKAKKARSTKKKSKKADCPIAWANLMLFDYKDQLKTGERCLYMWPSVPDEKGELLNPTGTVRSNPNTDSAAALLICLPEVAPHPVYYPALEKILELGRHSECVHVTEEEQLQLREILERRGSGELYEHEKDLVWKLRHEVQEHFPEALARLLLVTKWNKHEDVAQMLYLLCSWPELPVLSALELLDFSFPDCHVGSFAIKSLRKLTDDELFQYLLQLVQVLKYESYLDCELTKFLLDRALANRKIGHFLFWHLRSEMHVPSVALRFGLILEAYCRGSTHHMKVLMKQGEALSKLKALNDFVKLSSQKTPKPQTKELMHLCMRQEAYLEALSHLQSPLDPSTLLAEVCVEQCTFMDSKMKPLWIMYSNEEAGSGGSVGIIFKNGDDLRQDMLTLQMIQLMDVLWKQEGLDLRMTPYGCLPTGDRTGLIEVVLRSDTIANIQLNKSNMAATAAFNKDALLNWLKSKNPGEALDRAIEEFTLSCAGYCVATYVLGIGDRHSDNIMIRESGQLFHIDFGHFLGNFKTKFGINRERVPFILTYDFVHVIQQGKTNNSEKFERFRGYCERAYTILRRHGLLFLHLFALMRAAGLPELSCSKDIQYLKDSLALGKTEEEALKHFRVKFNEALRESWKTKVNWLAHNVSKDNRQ
Sequence of PI3Kδ (P27986 whole entry partner, species assumed): as the sequence (P27986 whole entry partner, species assumed) above

SMILES	IC50 [1] [nM]	IC50 [2] [nM]	IC50 [3] [nM]	IC50 [4] [nM]	IC50 [5, 7] [nM]	IC50 [6, 8] [nM]	IC50 [5, 9] [nM]	IC50 [6, 10] [nM]	IC50 ([5]; numeric values, read-out: Inhibitory activity against HCC1954 cells (IC50)) [nM]
C=CC(=O)Nc1ccc(CC(=O)N2CCN(c3ccc4c(c3)-c3nc(N5C(=O)OC[C@H]5C(F)F)cn3CCO4)CC2)cc1 [Compound 1]	5.4	317	21	< 8	103	18	–	–	–
C=CC(=O)N1CC[C@@H](C(=O)NCC(=O)N2CCN(c3ccc4c(c3)-c3nc(N5C(=O)OC[C@H]5C(F)F)cn3CCO4)CC2)C1 [Compound 2]	7.3	513	44	20	97	28	–	–	–
C=CC(=O)Nc1ccc(N2CC(CN3CCN(c4ccc5c(c4)-c4nc(N6C(=O)OC[C@H]6C(F)F)cn4CCO5)CC3)C2)cc1 [Compound 4]	7.4	315	98	43	65	26	–	–	–
C=CC(=O)Nc1ccc(N2CC(N3CCN(c4ccc5c(c4)-c4nc(N6C(=O)OC[C@H]6C(F)F)cn4CCO5)CC3)C2)cc1 [Compound 27]	0.21	2920	26	76	9	0.36	–	–	–
N#CC(=Cc1ccccc1)C(=O)Nc1ccc(N2CC(N3CCN(c4ccc5c(c4)-c4nc(N6C(=O)OC[C@H]6C(F)F)cn4CCO5)CC3)C2)cc1 [Compound 394]	–	–	–	–	–	–	< 50	< 50	–

Continued, values first:

IC50 [1] [nM]	IC50 [2] [nM]	IC50 [3] [nM]	IC50 [4] [nM]	IC50 [5, 7] [nM]	IC50 [6, 8] [nM]	IC50 [5, 9] [nM]	IC50 [6, 10] [nM]	IC50 ([5]; numeric values, read-out: Inhibitory activity against HCC1954 cells (IC50)) [nM]	SMILES
1.18	1260	38	49	–	–	–	–	–	C=CC(=O)Nc1ccc(N2CC[C@H](N3CCN(c4ccc5c(c4)-c4nc(N6C(=O)OC[C@H]6C(F)F)cn4CCO5)CC3)C2)cc1 (single isomer, unassigned) [Compound 29]
50	314	1200	117	670	35	–	–	–	C=CC(=O)N1CCC(N2CC(CN3CCN(c4ccc5c(c4)-c4nc(N6C(=O)OC[C@H]6C(F)F)cn4CCO5)CC3)C2)CC1 [Compound 5]
11	314	317	92	81	16	–	–	–	C=CC(=O)N1CC(N2CCC(CN3CCN(c4ccc5c(c4)-c4nc(N6C(=O)OC[C@H]6C(F)F)cn4CCO5)CC3)CC2)C1 [Compound 17]
0.16	1090	42	103	68	38	–	–	–	CN(C1COC1)C(C)(C)/C=C(\C#N)C(=O)Nc1ccc(N2CC(N3CCN(c4ccc5c(c4)-c4nc(N6C(=O)OC[C@H]6C(F)F)cn4CCO5)CC3)C2)cc1 [Compound 95]
1.33	3160	223	475	26	2.5	–	–	–	CN(C)C/C=C/C(=O)Nc1ccc(N2CC(N3CCN(c4ccc5c(c4)-c4nc(N6C(=O)OC[C@H]6C(F)F)cn4CCO5)CC3)C2)cc1 [Compound 96]
–	–	–	–	–	–	< 50	< 50	–	CCC(N)(C=C(C#N)C(=O)Nc1ccc(N2CC(N3CCN(c4ccc5c(c4)-c4nc(N6C(=O)OC[C@H]6C(F)F)cn4CCO5)CC3)C2)cc1)CC [Compound 395]
–	–	–	–	–	55	–	–	82	C[C@H](Nc1ccc2c(c1)OCCn1cc(N3C(=O)OC[C@H]3C(F)F)nc1-2)C(N)=O [GDC0077, GDC-0077, reference compound]
